In US8697379B2, “Lysosomotropic inhibitors of acid ceramidase” (MUSC Foundation for Research Development, priority 2008, dated 2014):
Values joined by “and” are separate entries in the source; they are usually repeats but may differ in a detail not shown here. Equal entries are not always repeated. Where two headings read alike, the source gives them in different places. Blank lines part the entries; values can stand above or below the molecule they belong to.

Columns and labels:
[1] = test system: cellular sphingolipids (Cn-Cer, Sph, S1P) in MCF-7 cells; test: Endogenous ceramide, Sph and S1P levels in MCF-7 cells by LC-MS/MS; format: cell-based, human
Method: (§1) Effects of the inhibitors on the cellular activity of ACDase were determined using cell lysate from the cultured cells previously treated with increasing concentrations of drugs. For this type of assay, the drugs are allowed to enter the cell for a specific time, then cell lysates were prepared by homogenization and assays performed as described above. Effects on endogenous Cers and Sph were determined using LC-MS/MS analysis as previously described. See Bielawska et al., Bioorg. Med. Chem., 16, 1032-1045 (2008); and Bielawska et al., Methods, 39, 82-91 (2006). Final results were expressed as the level of the particular sphingolipid (SPL)/phospholipids (Pi) determined from the Bligh and Dyer lipid extract and expressed as SPLs/Pi (pmol/nmol).

lysosomes [2] = test: Lysosomal stability by FACS analysis with LYSOTRACKER red; format: cell-based; settings: for lysosomal stability: 30 μM
Method: Effects of Class E inhibitors on ACDase protein degradation were determined by Western blotting as previously described. See Bielawska et al., Bioorg. Med. Chem., 16, 1032-1045 (2008); Liu et al., Front. Biosci., 13, 2293-2298 (2008); and Holman et al., Cancer Chemother. Pharmacol., 61, 231-242 (2008). Lysosomal stability and mitochondrial stability were determined by FACS analysis using LYSOTRACKER™ red (Molecular Probes, Eugene, Oreg., United States of America) or JC-1 mitochondrial dye (Molecular Probes, Eugene, Oreg., United States of America) as previously described. See Holman et al., Cancer. Chemother. Pharmacol., 61, 231-242 (2008).

[3] = Breakdown of prodrugs under the assay conditions; format: in vitro ADME; settings: under the various assay conditions; preliminary
acid ceramidase (ACDase) [4] = biological target: T1, acid ceramidase (ACDase) (Homo sapiens, UniProt Q13510); test: In vitro ACDase activity assay, release of radioactive palmitic acid from [3H]C16-Cer in MCF-7 cell lysate; format: biochemical; set-up: C16-Cer as a substrate and MCF-7 cell lysate as an enzymatic source; endogenous in cells; host or cells: MCF-7 cell lysate
T1 sequence (Q13510 22-142 limits assumed): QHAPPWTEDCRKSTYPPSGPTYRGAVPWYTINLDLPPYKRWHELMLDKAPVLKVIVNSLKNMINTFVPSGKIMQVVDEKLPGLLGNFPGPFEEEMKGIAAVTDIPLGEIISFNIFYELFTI
T1 sequence (Q13510 143-395 limits assumed): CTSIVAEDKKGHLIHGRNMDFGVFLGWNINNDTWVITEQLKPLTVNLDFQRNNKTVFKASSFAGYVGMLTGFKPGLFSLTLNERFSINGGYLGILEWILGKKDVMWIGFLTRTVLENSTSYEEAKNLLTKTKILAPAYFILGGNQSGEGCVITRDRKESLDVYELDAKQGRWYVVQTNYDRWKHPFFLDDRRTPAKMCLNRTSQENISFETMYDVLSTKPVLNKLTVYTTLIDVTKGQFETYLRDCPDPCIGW
Method: The in vitro assay was carried out according to a previously described procedure (see Zeidan et al., J. Biol. Chem., 281, 24695-24703 (2006)) using [^3H] C16-Cer as a substrate and MCF-7 cell lysate as an enzymatic source. Briefly, cell lysate was prepared under acidic conditions (i.e., pH 4.5, 50 mM sodium acetate, 5 mM magnesium chloride, 1 mM EDTA and 0.5% Triton X-100), and protein level was determined using BCA protein assay kit (Pierce, Rockford, Ill., United States of America). ACDase activity was determined based on the amount of the released radioactive palmitic acid counted by LS 6500 multi-purpose scintillation counter (Beckman Coulter, Inc., Fullerton, Calif., United States of America). The results are presented as percentage of control.

lysosomes [5] = settings: previously studied non-Class E inhibitor; Bielawska et al. 2008; cited from earlier work
acid ceramidase (ACDase) [6] = biological target: T1, acid ceramidase (ACDase); test: Cellular activity of ACDase: MCF-7 cells treated with drug, then lysed and assayed; format: cell-based; set-up: C16-Cer as a substrate and MCF-7 cell lysate as an enzymatic source; endogenous in cells; host or cells: MCF-7 cell lysate; settings: 10 μM, 2 h of treatment
Method: as §1

[7] = test system: MCF-7 breast carcinoma cells; test: MTT cell viability assay in MCF-7 breast carcinoma cells; format: cell-based, human
Method: Class E compounds were administrated to cells capable of undergoing differentiation in amounts effective to induce differentiation of several cancer cell lines: MCF-7, PPC1, SCC14a, A549, and J3DR4. Cell viability assay was performed by the 3-(4,5-Dimethylthiazol-2-yl)-2,5-diphenyltetrazolium bromide (MTT) assay. Cells were seeded into 96-well plate overnight before treatment with increasing drug concentrations (0-100 μM) as previously described. See Hansen et al., J. Immunol. Methods, 119, 203-210 (1989). After treatment, plates were incubated for an additional period of time (24-72 h). Changes in cell numbers were determined and expressed as a percentage of the untreated controls.
Class E prodrugs were administrated to MCF-7 cells capable of undergoing differentiation in amounts effective to induce differentiation. Cell viability assay was performed by the MTT assay. Cells were seeded into 96-well plate overnight before treatment with increasing drug concentrations (0-100 μM) as previously described. See Hansen et al., J. Immunol. Methods, 119, 203-210 (1989). After treatment, plates were incubated for an additional period of time (24-72 h). Changes in cell numbers were determined and expressed as a percentage of the untreated controls. 50% inhibitory concentrations were determined by comparing cell number changes in prodrug treated samples to control samples.

L929 cells = test: TNF-α induced PGE2 release from L929 mouse fibroblast cells; format: cell-based; settings: TNF-α treated L929 mouse fibroblast cells; preliminary data
Caspase 3/7 = test: Apo-ONE Homogeneous Caspase 3/7 assay in MCF-7 cells; format: cell-based, human; settings: 24 h incubation
Method: The apoptotic effect of LCL464 was also investigated in MCF-7 cells via its effect on Caspase 3/7, a group of cysteine proteases that mediate execution. This can be activated by apoptotic signals from both death receptor and intracellular/mitochondrial pathways. Briefly, MCF-7 cells were seeded at a density of 5×10^3/50 μL/well overnight in 96 well plates. Then cells were treated with vehicle or diluted LCL464. After 8 and 24 hours incubation, Caspase 3/7 activities were measured using the Apo-ONE Homogeneous Caspase 3/7 Assay Kit according to the manufacturer's instructions (Promega, Madison, Wis., United States of America). LCL464 causes a dose dependent induction of apoptosis following 24 h incubation, causing increase of Caspase 3/7 activities to 140% and 200% for 10 μM and 20 μM, respectively.

[8] = 10 μM, 5 hours, and time course
[9] = MCF-7 cells, MTT, 24 hours, Example 7, hydrochloride, read-out: IC50/24 h
[10] = 48 hours of treatment, Example 6, read-out: IC50, MCF-7 cell growth (50% of surviving cells as compared to the control)

- effect on acid ceramidase activity in vitro (acid ceramidase (ACDase) [4]; concentration dependent (FIG. 13)): inhibited acid ceramidase in vitro
Structure (SMILES): CCCCCCCCCCCCCC(=O)N[C@H](COC(=O)CN(C)C)[C@H](OC(=O)CN(C)C)c1ccc([N+](=O)[O-])cc1.Cl [LCL521]
- cellular level of Sph and S1P [1, 8]: decreased
- levels of pro-apoptotic C16- and C18-Cer and total ceramide [1, 8]: increased
- delivery to the lysosomes (LYSOTRACKER Red fluorescence) (lysosomes [2]; 5 μM or 10 μM, 1 hour): appears to be delivered to the lysosomes
- breakdown / metabolism of the prodrug [3]: slowly metabolized to the mono-ester LCL581 and B13

- ACDase inhibition at the cellular level (acid ceramidase (ACDase) [6]): about 35%
Structure (SMILES): CCCCCCCCCCCCCCN[C@H](CO)[C@H](O)c1ccc([N+](=O)[O-])cc1 [LCL204, (1R,2R)-2-N-(tetradecylamino)-1-(4′-nitrophenyl)-1,3-propandiol]
- lysosomal stability as compared to the control (permanent destabilization) (lysosomes [5]): ~90%

- IC50 [7, 9]: ~8.9 µM and 8.9 µM
- IC50 ([7]; MCF-7 cells, MTT, 48 hours, Example 7, read-out: IC50/48 h): 8.67 µM
- IC50 ([7]; MCF-7 cells, MTT, 72 hours, Example 7, read-out: IC50/72 h): 7.45 µM
Structure (SMILES): CCCCCCCCCCCCCC(=O)N[C@H](COC(=O)CN(C)C)[C@H](OC(=O)CN(C)C)c1ccc([N+](=O)[O-])cc1.Cl [LCL521, (1R,2R)-2-[N-tetradecanoyl)-amino]-1-(4″-nitrophenyl)-1,3-propandiol-1,3-O-bis-dimethylglycine hydrochloride]

Structure (SMILES): CCCCCCCCCCCCCC(=O)N[C@H](C)[C@@H](O)c1ccccc1 [D-MAPP, D-erythro-2-(N-myristolyamino)-1-phenyl-1-propanol]
- release of PGE2 (L929 cells): inhibited

Structure (SMILES): CCCCCCCCCCCCCC(=O)N[C@H](CO)[C@H](OC(=O)CN(C)C)c1ccc([N+](=O)[O-])cc1.Cl [LCL522]
- regulation of cellular sphingolipids ([1]; 10 μM, 5 hours): behaved similarly to B13
- breakdown / metabolism of the prodrug [3]: breaks down under the various assay conditions to form B13

Structure (SMILES): O=C(CCCCCCCCCCCN1CCOCC1)N[C@H](CO)[C@H](O)c1ccc([N+](=O)[O-])cc1 [LCL449, (1R,2R)-2-[N-(12′-{1″-morpholine}-dodecanoyl)-amino]-1-(4″-nitrophenyl)-1,3-propandiol]
- IC50 [7, 10]: 49.9 µM

- lysosomal dysfunction (LYSOTRACKER Red fluorescence) (lysosomes [2]; 10 μM, 1 and 5 hours of treatment): did not cause lysosomal dysfunction
- lysosomal stability (lysosomes [2]; 1 h): 40%
- lysosomal stability (lysosomes [2]; 5 h): 61%
- lysosomal stability (lysosomes [2]; 24 h): > 100%
- IC50 ([7]; 72 hr treatment, Example 6, read-out: IC50, MCF-7 cell growth): 7.2 µM
- inhibition of ACDase in vitro (acid ceramidase (ACDase) [4]; 50 μM inhibitor, [3H]C16-Cer substrate): 55%
- ACDase inhibition at the cellular level (acid ceramidase (ACDase) [6]): 65%
Structure (SMILES): CN(C)CCCCCCCCCCCC(=O)N[C@H](CO)[C@H](O)c1ccc([N+](=O)[O-])cc1 [LCL464, (1R,2R)-2-[N-(12′-N,N-dimethylamino-dodecanoyl)-amino]-1-(4″-nitrophenyl)-1,3-propandiol]
- level of C18-Cer, % of control ([1]; 50 μM, at 24 hours): ~900%
- level of C16-Cer (percentage of control) ([1]; 50 μM, early effect): ~240%
- concentration at which elevation of C18-Cer was observed ([1]; 24 hours, dose range 0-50 μM): above 20 μM
- IC50 [7, 10]: 10.2 µM
- Caspase 3/7 activities (percentage of control) (Caspase 3/7; 10 μM): 140%
- Caspase 3/7 activities (percentage of control) (Caspase 3/7; 20 μM): 200%

- IC50 [7, 9]: ~6.5 µM and 6.5 µM
Structure (SMILES): CCCCCCCCCCCCCC(=O)N[C@H](CO)[C@H](OC(=O)CN(C)C)c1ccc([N+](=O)[O-])cc1.Cl [LCL522, (1R,2R)-2-[N-tetradecanoyl)-amino]-1-(4″-nitrophenyl)-1,3-propandiol-1-O-dimethylglycine hydrochloride]
